One assay addresses human TRPML1 (Homo sapiens, UniProt Q9GZU1). The assay is described as follows: Fluorescent TRPML1 assay (Fluo4-AM calcium fluorescence, HEK-293 Trex cells). Format: cell-based. Here is the method: (§1) HEK-293 Trex cells were stably transfected with a construct consisting of the human coding sequence for TRPML1 cloned into the tet-inducible plasmid pCDNA5 T/O. Mutations were introduced into the TRPML1 sequence to facilitate expression on the cell surface (Silvia Vergarajauregui, Rosa Puertollano Traffic. 2006 March; 7 (3): 337-353). Briefly, the cells are cultured in 150 mm round tissue culture dishes containing 20 mL of media. The day before the assay the cells are rinsed with DPBS —Ca—Mg and then treated briefly with Trypsin-EDTA. The Trypsin-EDTA is diluted with growth media, and cells are counted. 38×10^6 cells are re-plated into 150 mm round tissue culture dishes in media containing 0.5 ug/mL doxycycline to induce expression of hTRPML1.
(§2) The day of the experiment cells are lifted from the plates as above and collected by centrifugation. The cells are then suspended in dye loading buffer consisting of Ringer's solution supplemented with 0.1% Pluronic Acid and 1 micromolar Fluo4-AM dye. Cells are loaded for ˜60 minutes in the dark with occasional mixing. The cells are collected by centrifugation, the loading media aspirated, and the cells resuspended in 25 mL Ringer's solution and incubated ˜60 minutes in the dark. The cells are again collected by centrifugation, rinsed in Ringer's Solution and resuspended to 0.2×10^6 cells/mL in modified Ringer's solution containing 10 mM calcium.
(§3) Compounds are dissolved to a concentration of 10 millimolar with DMSO. Compound plates are created by dispensing compounds into 384 well black wall clear bottom plates (Greiner 781091). Positive and negative controls are included on each plate. Typically, different amounts of each compound are tested ranging from 100 nanoMoles (20 micromolar final concentration) decreasing in half-log steps to 31 picoMoles (6 nanomolar final concentration). Each concentration is typically tested in triplicate.
(§4) 50 microliters of dye-loaded cells are dispensed into each well of the compound assay plate created above. The fluorescence in each well is then determined with an excitation wavelength of 480 nm and an emission wavelength of 540 nm using either a Molecular Devices SpectraMax multimode plate reader or a Hamamatsu FDSS/uCell plate imager.
(§5) The resulting fluorescence for each well is exported as an ascii file and loaded into our LIMS for analysis. The percent activity of each compound at each concentration is determined by comparison to the positive and negative control wells included in each plate.
(§6) EC50 values were calculated using a non-linear regression of Prism. In the table, “A” indicates an EC50 of less than 100 nM, “B” indicates an EC50 range from 100 nM to 500 nM; “C” indicates an EC50 range from 500 nM to 2 μM; and “D” indicates an EC50 greater than 2 μM.

For another assay, the target named is T1, TRPML3 (Homo sapiens, UniProt Q8TDD5).
T1 construct: expressed in transfected cells
T1 sequence (Q8TDD5 1-553): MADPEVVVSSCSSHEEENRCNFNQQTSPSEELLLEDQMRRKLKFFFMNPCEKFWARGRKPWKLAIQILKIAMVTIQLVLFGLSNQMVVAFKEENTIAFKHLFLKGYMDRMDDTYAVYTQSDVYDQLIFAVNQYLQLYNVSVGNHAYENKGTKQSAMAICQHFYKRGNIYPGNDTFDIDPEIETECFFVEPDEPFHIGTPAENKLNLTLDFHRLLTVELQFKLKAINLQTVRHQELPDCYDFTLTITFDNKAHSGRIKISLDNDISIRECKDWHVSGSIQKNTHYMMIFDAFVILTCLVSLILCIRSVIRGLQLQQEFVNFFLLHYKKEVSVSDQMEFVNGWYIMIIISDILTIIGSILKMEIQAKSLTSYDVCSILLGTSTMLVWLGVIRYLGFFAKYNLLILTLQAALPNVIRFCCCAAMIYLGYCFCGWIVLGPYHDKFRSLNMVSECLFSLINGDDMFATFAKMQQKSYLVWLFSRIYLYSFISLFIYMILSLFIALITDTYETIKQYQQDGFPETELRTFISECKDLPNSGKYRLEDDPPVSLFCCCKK
The assay is described as follows: Fluorescent TRPML3 assay (as for TRPML1). Format: cell-based. The settings on record: Table 3, compounds 101-177. Here is the method:
as §1, §2, §3, §4, §5
Assays for TRPML2 and TRPML3 were performed as above for TRPML1, by substituting the appropriate TRPML2 or TRPML3 subtype for the TRPML1.
as §6

Bounds are passed on as bounds.

The EC50 is the concentration needed to bring the measured effect to its halfway point.

Chain of human TRPML1 (Q9GZU1 whole entry L15A/L16A/L577A/L578A, form open): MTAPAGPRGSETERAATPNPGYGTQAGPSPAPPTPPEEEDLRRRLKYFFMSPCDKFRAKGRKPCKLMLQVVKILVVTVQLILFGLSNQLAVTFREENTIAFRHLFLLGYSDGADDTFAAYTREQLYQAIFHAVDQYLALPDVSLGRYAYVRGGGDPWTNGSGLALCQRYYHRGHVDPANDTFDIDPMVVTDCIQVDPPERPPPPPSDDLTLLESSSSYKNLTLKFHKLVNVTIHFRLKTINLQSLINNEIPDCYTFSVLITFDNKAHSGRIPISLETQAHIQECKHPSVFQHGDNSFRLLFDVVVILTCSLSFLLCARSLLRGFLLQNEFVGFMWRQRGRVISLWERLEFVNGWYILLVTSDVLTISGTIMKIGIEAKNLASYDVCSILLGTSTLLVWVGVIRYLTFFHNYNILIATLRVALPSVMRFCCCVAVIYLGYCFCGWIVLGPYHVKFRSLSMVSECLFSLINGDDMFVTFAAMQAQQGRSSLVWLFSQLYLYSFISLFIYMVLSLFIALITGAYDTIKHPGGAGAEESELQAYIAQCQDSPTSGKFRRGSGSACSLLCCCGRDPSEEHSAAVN

With `CC(C)C(=O)N1C[C@H](C)N(c2ncnc3c2c(-c2ccccc2F)cn3-c2cc(C#N)ccn2)C[C@H]1C` (single isomer, unassigned) [Compound 233], at human TRPML1 (Table 3, compounds 201-283), the EC50 was less than 100 nM.
As for `CC(C)C(=O)N1C[C@H](C)N(c2ncnc3c2c(-c2ccccc2F)cn3-c2cc(C#N)ccn2)C[C@H]1C` (single isomer, unassigned) [Compound 234], on human TRPML1 (Table 3, compounds 201-283), the EC50 was less than 100 nM.
For `CC(C)C(=O)N1C[C@H](C)N(c2ncnc3c2c(-c2ccccc2F)cn3-c2cc(C#N)ccn2)C[C@H]1C` (single isomer, unassigned) [Compound 281], the EC50 at human TRPML1 (Table 3, compounds 201-283) was in the range of 100 to 500 nM.
As to `CC(C)C(=O)N1CC2(CCN(c3ncnc4c3c(-c3ccccc3F)cn4-c3cc(C#N)ccn3)C2)C1` [Compound 101, 2-(5-(2-fluorophenyl)-4-(2-isobutyryl-2,6-diazaspiro[3.4]octan-6-yl)-7H-pyrrolo[2,3-d]pyrimidin-7-yl)isonicotinonitrile], the EC50 at TRPML3 was 500 to 2000 nM; on human TRPML1 (Table 3, compounds 101-177), more than 2000 nM.
On to `C[C@H]1CN(C(=O)C2CC2)CCN1c1ncnc2c1c(-c1ccccc1F)cn2-c1cc(C#N)ccn1` [Compound 105, (S)-2-(4-(4-(cyclopropanecarbonyl)-2-methylpiperazin-1-yl)-5-(2-fluorophenyl)-7H-pyrrolo[2,3-d]pyrimidin-7-yl)isonicotinonitrile], for which the EC50 on TRPML3 was less than 100 nM; on human TRPML1 (Table 3, compounds 101-177) it was less than 100 nM.
Regarding `CC(C)C(=O)N1CCN(c2ncnc3c2c(-c2ccccc2F)cn3-c2cc(C#N)ccn2)CC1` [Compound 106, 2-(5-(2-fluorophenyl)-4-(4-isobutyrylpiperazin-1-yl)-7H-pyrrolo[2,3-d]pyrimidin-7-yl)isonicotinonitrile], the EC50 at TRPML3 was less than 100 nM; at human TRPML1 (Table 3, compounds 101-177), 100 to 500 nM.
Taken in the same sequence, the figures for `N#Cc1ccnc(-n2cc(-c3ccccc3F)c3c(N4CCN(C(=O)C5CC5)CC4)ncnc32)c1` [Compound 110, 2-(4-(4-(cyclopropanecarbonyl)piperazin-1-yl)-5-(2-fluorophenyl)-7H-pyrrolo[2,3-d]pyrimidin-7-yl)isonicotinonitrile] were 100 to 500 nM and 100 to 500 nM.
As to `C[C@@H]1CN(c2ncnc3c2c(-c2ccccc2F)cn3-c2cc(C#N)ccn2)CCN1C(=O)C1CC1` [Compound 111, (R)-2-(4-(4-(cyclopropanecarbonyl)-3-methylpiperazin-1-yl)-5-(2-fluorophenyl)-7H-pyrrolo[2,3-d]pyrimidin-7-yl)isonicotinonitrile], the EC50 on human TRPML1 (Table 3, compounds 101-177) was less than 100 nM.
On to `C[C@H]1CN(C(=O)C2(C)CC2)CCN1c1ncnc2c1c(-c1ccccc1F)cn2-c1cc(C#N)ccn1` [Compound 112, (S)-2-(5-(2-fluorophenyl)-4-(2-methyl-4-(1-methylcyclopropane-1-carbonyl)piperazin-1-yl)-7H-pyrrolo[2,3-d]pyrimidin-7-yl)isonicotinonitrile], for which the EC50 was less than 100 nM at TRPML3 and less than 100 nM on human TRPML1 (Table 3, compounds 101-177).
As to `CC(F)C(=O)N1CCN(c2ncnc3c2c(-c2ccccc2F)cn3-c2cc(C#N)ccn2)[C@@H](C)C1` (stereo partly drawn) [Compound 113, 2-(5-(2-fluorophenyl)-4-((2S)-4-(2-fluoropropanoyl)-2-methylpiperazin-1-yl)-7H-pyrrolo[2,3-d]pyrimidin-7-yl)isonicotinonitrile], the EC50 is 100 to 500 nM on TRPML3 and less than 100 nM on human TRPML1 (Table 3, compounds 101-177).
As to `C[C@H]1CN(C(=O)C(C)(C)F)CCN1c1ncnc2c1c(C1CC1)cn2-c1cc(C#N)ccn1` [Compound 114, (S)-2-(5-cyclopropyl-4-(4-(2-fluoro-2-methylpropanoyl)-2-methylpiperazin-1-yl)-7H-pyrrolo[2,3-d]pyrimidin-7-yl)isonicotinonitrile], the 50% effective concentration (EC50) at TRPML3 was less than 100 nM; at human TRPML1 (Table 3, compounds 101-177) it was less than 100 nM.
Regarding `CC(C)C(=O)N1CCN(c2ncnc3c2c(-c2ccccn2)cn3-c2cc(C#N)ccn2)[C@@H](C)C1` [Compound 116, (S)-2-(4-(4-isobutyryl-2-methylpiperazin-1-yl)-5-(pyridin-2-yl)-7H-pyrrolo[2,3-d]pyrimidin-7-yl)isonicotinonitrile], the EC50 was in the range of 500 to 2000 nM at TRPML3 and 500 to 2000 nM on human TRPML1 (Table 3, compounds 101-177).
For `CC(C)C(=O)N1CCN(c2ncnc3c2c(-c2ccccc2)cn3-c2cc(C#N)ccn2)C[C@H]1C` [Compound 119, (R)-2-(4-(4-isobutyryl-3-methylpiperazin-1-yl)-5-phenyl-7H-pyrrolo[2,3-d]pyrimidin-7-yl)isonicotinonitrile], the EC50 at TRPML3 is less than 100 nM; on human TRPML1 (Table 3, compounds 101-177), less than 100 nM.
As to `C[C@H]1CN(C(=O)C2CC2)CCN1c1ncnc2c1c(-c1ccccc1)cn2-c1cc(C#N)ccn1` [Compound 123, (S)-2-(4-(4-(cyclopropanecarbonyl)-2-methylpiperazin-1-yl)-5-phenyl-7H-pyrrolo[2,3-d]pyrimidin-7-yl)isonicotinonitrile], the EC50 on TRPML3 lay within 100 to 500 nM; at human TRPML1 (Table 3, compounds 101-177), 100 to 500 nM.
Consider `C[C@@H]1CN(c2ncnc3c2c(-c2ccccc2)cn3-c2cc(C#N)ccn2)CCN1C(=O)C1CC1` [Compound 124, (R)-2-(4-(4-(cyclopropanecarbonyl)-3-methylpiperazin-1-yl)-5-phenyl-7H-pyrrolo[2,3-d]pyrimidin-7-yl)isonicotinonitrile], for which the EC50 at TRPML3 fell in the range of 100 to 500 nM; at human TRPML1 (Table 3, compounds 101-177), 100 to 500 nM.
Consider `C[C@H]1CN(C(=O)C(C)(C)F)CCN1c1ncnc2c1c(-c1ccccc1F)cn2-c1cc(C#N)ccn1` [Compound 125, (S)-2-(4-(4-(2-fluoro-2-methylpropanoyl)-2-methylpiperazin-1-yl)-5-(2-fluorophenyl)-7H-pyrrolo[2,3-d]pyrimidin-7-yl)isonicotinonitrile], for which the EC50 was less than 100 nM on TRPML3 and less than 100 nM on human TRPML1 (Table 3, compounds 101-177).
Consider `C[C@H]1CN(C(=O)C2(C)CC2)CCN1c1ncnc2c1c(-c1ccccn1)cn2-c1cc(C#N)ccn1` [Compound 127, (S)-2-(4-(2-methyl-4-(1-methylcyclopropane-1-carbonyl)piperazin-1-yl)-5-(pyridin-2-yl)-7H-pyrrolo[2,3-d]pyrimidin-7-yl)isonicotinonitrile], for which the EC50 was more than 2000 nM at TRPML3 and 500 to 2000 nM at human TRPML1 (Table 3, compounds 101-177).
For `C[C@@H]1CN(c2ncnc3c2c(C2CC2)cn3-c2cc(C#N)ccn2)CCN1C(=O)C1(F)CC1` [Compound 129, (R)-2-(5-cyclopropyl-4-(4-(1-fluorocyclopropane-1-carbonyl)-3-methylpiperazin-1-yl)-7H-pyrrolo[2,3-d]pyrimidin-7-yl)isonicotinonitrile], the EC50 at TRPML3 was 100 to 500 nM; at human TRPML1 (Table 3, compounds 101-177), less than 100 nM.
The like results for `CC(C)C(=O)N1CCN(c2ncnc3c2c(-c2ccccn2)cn3-c2cc(C#N)ccn2)C[C@H]1C` [Compound 132, (R)-2-(4-(4-isobutyryl-3-methylpiperazin-1-yl)-5-(pyridin-2-yl)-7H-pyrrolo[2,3-d]pyrimidin-7-yl)isonicotinonitrile] were, in that order, 500 to 2000 nM and 500 to 2000 nM.
Consider `C[C@H]1CN(C(=O)CCC(F)(F)F)CCN1c1ncnc2c1c(-c1ccccc1F)cn2-c1cc(C#N)ccn1` [Compound 135, (S)-2-(5-(2-fluorophenyl)-4-(2-methyl-4-(4,4,4-trifluorobutanoyl)piperazin-1-yl)-7H-pyrrolo[2,3-d]pyrimidin-7-yl)isonicotinonitrile], for which the EC50 on TRPML3 is 100 to 500 nM; at human TRPML1 (Table 3, compounds 101-177) it was less than 100 nM.
As for `CC(C)C(=O)N1C[C@H](C)N(c2ncnc3c2c(C2CCC2)cn3-c2cc(C#N)ccn2)C[C@H]1C` [Compound 238, 2-(5-cyclobutyl-4-((2S,5R)-4-isobutyryl-2,5-dimethylpiperazin-1-yl)-7H-pyrrolo[2,3-d]pyrimidin-7-yl)isonicotinonitrile], the EC50 at human TRPML1 (Table 3, compounds 201-283) is 100 to 500 nM.

The values are drawn from US20240398812A1 (Caraway Therapeutics, Inc., priority 2021, published 2024).
